Data published in US11135186B2, “Regulators of the endoplasmic reticulum proteostasis network” (The Scripps Research Institute, priority 2015, dated 2021).

Experiments:
[1] = tested on: XBP1-RLuc reporter (IRE1/XBP1s arm of the UPR); assay: XBP1-RLuc splicing reporter, 1536-well screen in HEK293T-Rex cells; assay type: cell-based; details: % Tg (500 nM) activation, triplicate confirmation screen at 6.8 μM, 18 h
Source text: To evaluate the selectivity of our screening hits for ATF6, we employed an alternative luciferase reporter to measure activation of the IRE1/XBP1s arm of the UPR. This reporter contains Renilla luciferase (RLuc) expressed out of frame downstream of the XBP1 splice site, preventing RLuc translation in the absence of stress (FIG. 2b)^36,37. In response to IRE1 activation, the 26-nt XBP1 intron is removed, producing a frame shift that allows for RLuc translation and activity. Robust dose-dependent activation of the XBP1-RLuc reporter upon addition of the ER stressors Tg and Tm was confirmed in HEK293T-Rex cells stably expressing the XBP1-RLuc reporter, producing a Z′ score of 0.75 for Tg.
(§1) HEK293T-Rex cells incorporating either the ERSE-FLuc or XBP1s-RLuc reporters were collected by trypsinization and resuspended at a density of 500,000 cells per mL. The assay was started by dispensing 5 μL of cell suspension into each well of white, solid-bottom 1536-well plates using a flying reagent dispenser (FRD) and placed into an online incubator 3 h. Cells were then treated with 34 nL/well of either test compounds to give final concentrations of 6.8 μM, DMSO (Low control, final concentration 0.68%, 0% activation) or […] of Delta-7 thapsigargin (High control, final concentration 500 nM, 100% activation). Plates were incubated for 18 h at 37° C., removed from the incubator and equilibrated to room temperature for 10 min. Luciferase activity was detected by addition of 5 μL of ONE-Glo reagent (Promega) to each well. After a 10 min incubation time, light emission was measured with the ViewLux reader (PerkinElmer). The percent activation of each test compound was calculated as follows: % Activation=100*(Test Compound−Median Low Control)/(Median High Control ˜Median Low Control).

[2] = tested on: ERSE-FLuc reporter (ATF6 arm of the UPR); assay: ERSE-FLuc reporter, 1536-well confirmation screen in HEK293T-Rex cells; assay type: cell-based; details: % Tg (500 nM) activation, triplicate confirmation screen at 6.8 μM, 18 h
Source text: We employed a transcriptional reporter that quantifies activation of the ATF6 arm of the UPR in HEK293T-Rex cells. This reporter contains a fragment of the UPR-inducible BiP promoter, including three ER stress-responsive elements (ERSEs), driving expression of firefly luciferase (ERSE-FLuc; FIG. 1a)^34. We previously employed this reporter for a small-scale screen using the 1280 member compound Library of Pharmacologic Active Compounds (LoPAC) to find small molecules that activate the UPR^8. […] Optimization and miniaturization of this assay to 1536-well format was performed at the Scripps Research Institute Molecule Screening Center (SRIMSC).
as §1

[3] = tested on: BiP expression in ALMC-2 cells; assay: BiP qPCR in ALMC-2 cells; assay type: cell-based, human; details: 10 μM, 6 h
Method: Cells were treated as described at 37° C., washed with Dulbecco's phosphate-buffered saline (Gibco), and then RNA was extracted using the RNeasy Mini Kit (Qiagen). qPCR reactions were performed on cDNA prepared from 500 ng of total cellular RNA using the QuantiTect Reverse Transcription Kit (Qiagen). The FastStart Universal SYBR Green Master Mix (Roche), cDNA, and appropriate human primers^4 or mouse primers (BiP; […] (SEQ ID NO: 5) and […] (SEQ ID NO: 6) purchased from Integrated DNA Technologies were used for amplifications (45 cycles of 1 min at 95° C., 10 s at 95° C., 30 sec at 60° C.) in an ABI 7900HT Fast Real Time PCR machine. Primer integrity was assessed by a thermal melt to confirm homogeneity and the absence of primer dimers. Transcripts were normalized to the housekeeping gene Rplp2 and all measurements were performed in triplicate. Data were analyzed using the RQ Manager and DataAssist 2.0 softwares (ABI).

[4] = tested on: ERSE-FLuc reporter (ATF6 arm of the UPR); assay: ERSE-FLuc reporter, 96-well, HEK293T-Rex cells (SAR and S1P inhibition); assay type: cell-based; details: for ERSE reporter activity relative to 147: HEK293T-Rex, 10 μM
Method: HEK293T-Rex cells incorporating the ERSE-FLuc reporter and HEK293^DAX cells were plated approximately 20,000 cells/well in flat-bottomed, black 96-well assay plates (Costar, Corning, Inc.) overnight prior to compound administration. Cells were treated with compounds as described for 12-18 h then the plates were equilibrated to room temperature and 50 μL of SteadyLite (PerkinElmer) was added to each well. Luminescence activity was measured in a Safire II microplate reader with a 1000 ms integration time.

HEK293T-Rex cells = assay: mRNA-Seq transcriptional profiling and geneset analysis in HEK293T-Rex cells; assay type: cell-based, human; details: 6 h, compounds 10 μM, Tg 1 μM
Method: HEK293T-Rex and HEK293^DAX cells in 12-well plates were treated for 6 h with vehicle, 1 μM Tg, 10 μM TMP (in HEK293^DAX), or 10 μM 132, 147 or 263 in biological triplicate at 37° C. Cells were harvested, and RNA was extracted using the RNeasy Mini Kit (Qiagen). Total RNA was quantified using NanoDrop (ND-1000). Samples were run on the Illuina HiSeq system.
Single end, 100 bp-long reads from RNA-Seq experiments were aligned to the GRCh37.p13 human genome reference assembly using SeqMan NGen 11.2.1 (DNAStar, Inc.). The assembly data were then imported into ArrayStar with QSeq (DNAStar, Inc.) to quantify the gene expression levels. The sequence counts were normalized to reads per kilobase per million (RPKM) after filtering out non-mRNA sequence features. The statistical significance of the difference between the expression levels of a gene under different conditions was assessed using a Student's t-test with the Benjamini-Hochberg multiple testing correction.
ATF6- and XBP1s-selective target genes were identified from transcriptional profiles of HEK293D^X cells following stress-independent activation of TMP-dependent DHFR-ATF6 and/or tetracycline inducible XBP1s, as previously described^4. PERK-selective target genes were identified from^8. Only ATF6-, XBP1s- or PERK-selective genes induced >1.5 fold in Tg-treated samples were used in this analysis. The log transformed fold-increase of these target genes in HEK293T-Rex cells treated with the respective ER proteostasis regulators were then normalized to the log transformed fold increase of these genes induced by Tg treatment. The plots shown in FIG. 5b-e were prepared as box and whisker plots using Kaleidograph. Differential activation of the ATF6, XBP1s, and PERK genesets was assessed by one-way ANOVA and significance of pairwise comparison confirmed by unpaired t-test. An analogous strategy was employed to prepare the heat map using transcriptional data from the MGE analysis.

^FTTTR^WT = assay: [35S] metabolic labeling, secretion of flag-tagged TTR^WT from HepG2^ATF6 cells; assay type: cell-based; details: 15 h pretreatment, 10 μM compound or 1 μM Tg, 4 h chase
Method: (§2) HepG2 cells or HEK293T cells plated on poly-D-lysine coated plates were metabolically labeled in DMEM-Cys/-Met (CellGro) supplemented with glutamine, penicillin/streptomycin, dialyzed fetal bovine serum, and EasyTag EXPRESS^35S Protein Labeling Mix (Perkin Elmer) for 30 min. Cells were washed twice with complete media and incubated in prewarmed DMEM for the indicated times. Media or lysates were harvested at the indicated times. Lysates were prepared in RIPA buffer with fresh protease inhibitor cocktail (Roche). FLAG tagged TTR variants or ALLC were immunopurified using M1 anti-FLAG agarose beads (Sigma-Aldrich) and washed three times with RIPA buffer. The immunoisolates were then eluted by boiling in Laemmli buffer and separated on SDS-PAGE. For total secreted media, 15 uL aliquots from media incubated for 4 hrs on pulsed cells were run on a SDS-PAGE. The gels were then dried, exposed to phosphorimager plates (GE Healthcare), and imaged with a Typhoon imager. Band intensities were quantified by densitometry in ImageQuant. Fraction secreted was calculated using the equation: fraction secreted=[extracellular [^35S]-LC signal at t=t/(extracellular [^35S]-LC signal at t=0+intracellular [^35S]-LC signal at t=0)]. Fraction remaining was calculated using the equation: [(extracellular [^35S]-LC signal at t=t+intracellular [^35S]-LC signal at t=t)/(extracellular [^35S]-LC signal at t=0+ intracellular [^35S]-LC signal at t=0)].

^FTTTR^A25T = assay: [35S] metabolic labeling, secretion of flag-tagged TTR^A25T from HepG2^ATF6 cells; assay type: cell-based; details: 15 h pretreatment, 10 μM compound or 1 μM Tg, 4 h chase
Method: as §2

[5] = tested on: endogenous secretory proteome of HepG2^ATF6 cells; assay: [35S] metabolic labeling, total secreted protein from HepG2^ATF6 cells; assay type: cell-based; details: 15 h pretreatment, 10 μM compound or 1 μM Tg, 4 h chase
Method: as §2

Compound: CCCCNNC(=O)c1ccc(Br)cc1 [Compound 5]
- % XBP1-RLuc activation [1]: 9.1 ± 0.7%
- % ERSE-FLuc activation [2]: 60.9 ± 6.0%

Compound: CCCc1cc(C(=O)Nc2cc(C)ccc2O)no1 [Compound 145]
- % XBP1-RLuc activation [1]: 24.5 ± 4.7%
- expression of the ATF6 target gene BiP in ALMC-2 cells [3]: induced
- % ERSE-FLuc activation [2]: 83.4 ± 6.3%

Compound: O=C1N/C(=C\c2ccc(O)cc2)C(=O)N1c1cccc(Cl)c1 [Compound 238]
- % ERSE-FLuc activation [2]: 68.2 ± 5.7%

Compound: Cc1cc(C)c(OCC(=O)N/N=C/c2ccc(Cl)c(O)c2)c(Br)c1 [Compound 258]
- % XBP1-RLuc activation [1]: 32.6 ± 1.0%
- % ERSE-FLuc activation [2]: 28.6 ± 6.1%

Compound: COc1ccc(CCC(=O)Nc2cc(C)ccc2O)cc1 [RP14]
- ERSE reporter activity relative to 147 [4]: slightly decrease or do not change

Compound: COc1ccccc1CCC(=O)Nc1cc(C)ccc1O [RP23]
- ERSE reporter activity relative to 147 [4]: slightly decrease or do not change

Compound: Cc1ccc(O)c(NC(=O)CCc2ccccc2F)c1 [RP24]
- ERSE reporter activity relative to 147 [4]: increase

Compound: Cc1ccc(O)c(NC(=O)CCc2ccccc2C)c1 [RP25]
- ERSE reporter activity relative to 147 [4]: slightly decrease or do not change

Compound: Cc1ccc(O)c(NC(=O)CCc2ccccc2Cl)c1 [RP26]
- ERSE reporter activity relative to 147 [4]: increase

Compound: Cc1ccc(O)c(NC(=O)CCc2c(Cl)cccc2Cl)c1 [RP27]
- ERSE reporter activity relative to 147 [4]: decreases activity

Compound: C/C=C(/C)C(=O)O[C@H]1C(C)=C2[C@H]([C@@H]1OC(=O)CCCCCCC)[C@@](C)(OC(C)=O)C[C@H](OC(=O)CCC)[C@@]1(O)[C@H]2OC(=O)[C@@]1(C)O [Tg, thapsigargin, reference compound]
- BiP mRNA-Seq fold change (relative to Vh) (HEK293T-Rex cells; ATF6-selective gene): 11.6 fold
- GRP94 mRNA-Seq fold change (relative to Vh) (HEK293T-Rex cells; ATF6-selective gene): 4.2 fold
- SEL1L mRNA-Seq fold change (relative to Vh) (HEK293T-Rex cells; ATF6-selective gene): 7.6 fold
- DNAJB1 mRNA-Seq fold change (relative to Vh) (HEK293T-Rex cells; HSF1 target gene): 0.5 fold
- HSPA1A mRNA-Seq fold change (relative to Vh) (HEK293T-Rex cells; HSF1 target gene): 0.3 fold
- HSPA8 mRNA-Seq fold change (relative to Vh) (HEK293T-Rex cells; HSF1 target gene): 0.3 fold
- ASNS mRNA-Seq fold change (relative to Vh) (HEK293T-Rex cells; PERK target gene): 4.2 fold
- DDIT3 (CHOP) mRNA-Seq fold change (relative to Vh) (HEK293T-Rex cells; PERK target gene): 13.2 fold
- TrIB3 mRNA-Seq fold change (relative to Vh) (HEK293T-Rex cells; PERK target gene): 8.2 fold
- ERdj3 mRNA-Seq fold change (relative to Vh) (HEK293T-Rex cells; XBP1s- or ATF6-target gene): 4.0 fold
- HYOU1 mRNA-Seq fold change (relative to Vh) (HEK293T-Rex cells; XBP1s- or ATF6-target gene): 6.1 fold
- p58IPK mRNA-Seq fold change (relative to Vh) (HEK293T-Rex cells; XBP1s- or ATF6-target gene): 3.9 fold
- DNAJC10 mRNA-Seq fold change (relative to Vh) (HEK293T-Rex cells; XBP1s-selective gene): 2.1 fold
- HSPA13 mRNA-Seq fold change (relative to Vh) (HEK293T-Rex cells; XBP1s-selective gene): 4.2 fold
- SEC24D mRNA-Seq fold change (relative to Vh) (HEK293T-Rex cells; XBP1s-selective gene): 6.6 fold
- ERSE-FLuc activation on co-addition of the S1P inhibitor PF-429242 ([4]; PF-429242 10 μM, 18 h, regulators 10 μM, Tg 500 nM): impeded
- ^FTTTR^WT secretion (in words) (^FTTTR^WT): reduced
- ^FTTTR^A25T secretion (in words) (^FTTTR^A25T): reduced
- accumulation of [35S]-labeled protein in media (total secreted proteome) [5]: significantly impaired
